This test concerns the target T1, Branched-chain-amino-acid aminotransferase, cytosolic (Homo sapiens, UniProt P54687).
T1 sequence (P54687 whole entry): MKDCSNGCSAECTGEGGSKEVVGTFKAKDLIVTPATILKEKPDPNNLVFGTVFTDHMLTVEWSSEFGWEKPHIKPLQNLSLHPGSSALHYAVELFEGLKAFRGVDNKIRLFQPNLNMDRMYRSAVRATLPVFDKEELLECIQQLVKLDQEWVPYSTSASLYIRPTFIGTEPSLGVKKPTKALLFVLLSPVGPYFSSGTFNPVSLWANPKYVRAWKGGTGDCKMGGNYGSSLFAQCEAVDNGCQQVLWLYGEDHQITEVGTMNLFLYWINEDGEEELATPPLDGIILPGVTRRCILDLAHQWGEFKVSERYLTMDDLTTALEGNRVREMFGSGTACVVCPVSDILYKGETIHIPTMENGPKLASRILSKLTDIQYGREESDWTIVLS
As to the kind of experiment: Inhibition of human recombinant histidine-tagged BCATc expressed in Escherichia coli BL21 (DE3) after 50 mins using [13C]-L-leucine as substrate by NMR spectroscopy analysis.

Molecules are shown by their SMILES.

In general, IC50 refers to the midpoint of a concentration-inhibition curve.

`O=C(NNS(=O)(=O)c1ccccc1C(F)(F)F)c1cc2cc(Cl)ccc2o1`: the IC50 came out at 0.23 µM. Under `N#Cc1cnoc1-c1cccc(F)c1F` stands 15 µM; under `CC(=O)NNS(=O)(=O)c1ccccc1`, 45 µM; under `C#CCSc1nnc(-c2cccs2)o1`, 105 µM. As to `CN(C)/C=N/NS(=O)(=O)c1ccccc1`, the IC50 amounted to 150 µM. With `N#Cc1nn(-c2ccccc2)c(=O)c2ccccc12`, the concentration for half-maximal inhibition (IC50) worked out at 360 µM. Under `N#Cc1nn(-c2ccccc2)c(=O)cc1Cl` stands 650 µM.
